Measured values published in patent publication US20260365670A1, “EGFR INHIBITORS AND USES THEREOF” (DIZAL (JIANGSU) PHARMACEUTICAL CO., LTD., priority 2022, published 2026).
Where two headings read alike, the source gives them in different places.

Assays:
EGFR (C797S L858R) = molecular target: T1, EGFR (C797S L858R) (Homo sapiens, UniProt P00533, C797S/L858R); experiment: Inhibition of EGFR (C797S L858R) biochemical enzymatic activity (HTRF); conditions: EGFR L858-C797S, 1 mM ATP, 1 h, room temperature, read-out: IC50 (nM) @L858-C797S
T1 construct: purchased signalchem
How it was run: (§1)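 Enzyme preincubated with compound, then ATP (1 mM) and TK substrate-biotin (1 μM) added; 1 h RT; stopped with EDTA-containing detection mix; HTRF read (ex 320, em 615/665 nm); IC50 by 4-parameter logistic fit.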

EGFR[T790M/C797S/L858R] = molecular target: T2, EGFR[T790M/C797S/L858R] (Homo sapiens, UniProt P00533, C797S/L858R/T790M); experiment: Inhibition of EGFR[T790M/C797S/L858R] biochemical enzymatic activity (HTRF); conditions: EGFR T790M-C797S-L858R, 1 mM ATP, 1 h, room temperature, read-out: IC50 (nM) @T790M- C797S - L858R
T2 construct: purchased Carna Bio
How it was run: as §1

EGFR wild type = molecular target: T3, EGFR wild type (Homo sapiens, UniProt P00533); experiment: Inhibition of EGFR wild type biochemical enzymatic activity (HTRF); conditions: EGFR WT, 1 mM ATP, 1 h, room temperature, read-out: IC50 (nM) @WT
T3 construct: purchased Carna Bio
T3 sequence (P00533 25-1210): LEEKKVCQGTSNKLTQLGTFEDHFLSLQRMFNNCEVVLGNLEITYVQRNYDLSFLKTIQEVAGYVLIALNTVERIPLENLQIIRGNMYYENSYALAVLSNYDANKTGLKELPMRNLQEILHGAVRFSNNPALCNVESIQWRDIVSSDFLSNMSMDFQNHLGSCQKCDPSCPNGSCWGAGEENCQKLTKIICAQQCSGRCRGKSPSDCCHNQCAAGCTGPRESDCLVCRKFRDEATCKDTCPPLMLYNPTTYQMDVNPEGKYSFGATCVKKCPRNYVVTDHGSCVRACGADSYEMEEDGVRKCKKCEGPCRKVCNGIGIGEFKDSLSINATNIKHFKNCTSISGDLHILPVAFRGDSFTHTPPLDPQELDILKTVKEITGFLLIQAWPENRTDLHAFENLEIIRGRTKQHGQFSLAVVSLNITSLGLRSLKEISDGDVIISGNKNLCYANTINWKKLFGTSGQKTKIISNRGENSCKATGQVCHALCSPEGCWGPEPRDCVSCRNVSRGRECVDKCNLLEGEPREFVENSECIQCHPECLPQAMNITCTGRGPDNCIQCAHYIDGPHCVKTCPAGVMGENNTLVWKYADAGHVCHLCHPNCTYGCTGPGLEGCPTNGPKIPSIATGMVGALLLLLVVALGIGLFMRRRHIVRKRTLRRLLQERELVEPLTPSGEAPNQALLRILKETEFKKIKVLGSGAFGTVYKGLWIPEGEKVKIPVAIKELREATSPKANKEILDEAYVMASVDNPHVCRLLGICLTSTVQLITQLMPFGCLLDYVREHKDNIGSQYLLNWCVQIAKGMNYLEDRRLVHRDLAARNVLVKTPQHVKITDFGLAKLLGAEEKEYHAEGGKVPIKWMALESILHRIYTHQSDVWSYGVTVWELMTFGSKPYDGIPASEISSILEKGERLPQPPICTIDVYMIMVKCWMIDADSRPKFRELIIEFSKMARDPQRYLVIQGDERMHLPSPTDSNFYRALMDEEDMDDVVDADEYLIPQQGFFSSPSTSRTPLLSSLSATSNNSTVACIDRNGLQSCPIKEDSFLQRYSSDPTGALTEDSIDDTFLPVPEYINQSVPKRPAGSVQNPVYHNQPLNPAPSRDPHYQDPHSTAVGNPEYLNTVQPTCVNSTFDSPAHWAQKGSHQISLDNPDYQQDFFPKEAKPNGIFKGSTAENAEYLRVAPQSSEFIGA
How it was run: as §1

EGFR L858R/T790M = molecular target: T4, EGFR L858R/T790M (Homo sapiens, UniProt P00533, L858R/T790M); experiment: Inhibition of EGFR L858R/T790M biochemical enzymatic activity (HTRF); conditions: EGFR L858R-T790M, 1 mM ATP, 1 h, room temperature, read-out: IC50 (nM) @L858R-T790M
T4 construct: purchased Carna Bio
How it was run: as §1

[1] = molecular target: T5, EGFR[T790M/C797S/d746-750] (Homo sapiens, UniProt P00533, C797S/DEL746-750/T790M); experiment: Inhibition of EGFR[T790M/C797S/d746-750] biochemical enzymatic activity (HTRF); conditions: EGFR T790M-C797S-Del19, 1 mM ATP, 1 h, room temperature, read-out: IC50 (nM) @T790M - C797S - Del19
T5 construct: purchased Carna Bio
T5 sequence (P00533 with tags, fused parts or gaps DEL746-750/T790M/C797S limits assumed): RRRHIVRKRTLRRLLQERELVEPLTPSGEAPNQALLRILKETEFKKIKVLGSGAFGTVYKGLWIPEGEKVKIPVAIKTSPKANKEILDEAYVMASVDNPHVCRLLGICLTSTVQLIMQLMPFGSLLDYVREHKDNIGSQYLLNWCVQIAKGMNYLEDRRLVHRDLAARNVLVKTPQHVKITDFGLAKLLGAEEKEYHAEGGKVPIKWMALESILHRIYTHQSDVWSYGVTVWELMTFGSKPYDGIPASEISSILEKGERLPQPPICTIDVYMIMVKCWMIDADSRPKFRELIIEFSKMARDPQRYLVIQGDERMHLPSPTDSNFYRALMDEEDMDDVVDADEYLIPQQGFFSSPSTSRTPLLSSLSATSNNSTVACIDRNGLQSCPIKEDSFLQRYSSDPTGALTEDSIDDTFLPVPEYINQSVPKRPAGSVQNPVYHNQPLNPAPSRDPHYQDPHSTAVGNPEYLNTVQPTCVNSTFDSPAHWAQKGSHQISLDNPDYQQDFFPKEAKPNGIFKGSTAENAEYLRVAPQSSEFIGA
How it was run: as §1

EGFR Exon19Del/T790M = molecular target: T6, EGFR Exon19Del/T790M (Homo sapiens, UniProt P00533, DEL746-750/T790M); experiment: Inhibition of EGFR Exon19Del/T790M biochemical enzymatic activity (HTRF); conditions: EGFR Del19-T790M, 1 mM ATP, 1 h, room temperature, read-out: IC50 (nM) @Del19-T790M
T6 construct: purchased Carna Bio
T6 sequence (P00533 with tags, fused parts or gaps DEL746-750/T790M limits assumed): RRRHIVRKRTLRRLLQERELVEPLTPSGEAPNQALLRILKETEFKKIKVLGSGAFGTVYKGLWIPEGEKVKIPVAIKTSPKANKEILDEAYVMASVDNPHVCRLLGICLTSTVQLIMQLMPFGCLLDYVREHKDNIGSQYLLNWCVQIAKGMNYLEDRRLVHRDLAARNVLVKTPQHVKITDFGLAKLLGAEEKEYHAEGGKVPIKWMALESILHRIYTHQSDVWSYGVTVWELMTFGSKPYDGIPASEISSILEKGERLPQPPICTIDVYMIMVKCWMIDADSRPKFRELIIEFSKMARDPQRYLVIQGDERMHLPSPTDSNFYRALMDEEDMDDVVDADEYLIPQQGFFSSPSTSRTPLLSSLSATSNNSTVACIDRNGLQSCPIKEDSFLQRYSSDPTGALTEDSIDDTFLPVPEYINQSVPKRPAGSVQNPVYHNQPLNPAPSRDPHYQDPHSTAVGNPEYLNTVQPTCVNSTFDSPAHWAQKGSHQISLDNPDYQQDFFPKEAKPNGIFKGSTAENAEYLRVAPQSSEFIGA
How it was run: as §1

PC-9 = experiment: Cell proliferation assay, PC-9 cells (CellTiter-Glo, 72 hours); assay type: cell-based; conditions: PC9 cells, CellTiter-Glo, read-out: PC9 GI50
How it was run: (§2)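 GI50 is the concentration giving 50% proliferation inhibition. Growth for this was normalised to a baseline viability reading taken when compound was added, and to DMSO wells. PC-9 (500 cells/well) and mutant-EGFR Ba/F3 (5000 cells/well) are treated after overnight seeding in RPMI1640-based medium.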

[2] = test system: Ba/F3 cells expressing EGFR mutations; experiment: Cell proliferation assay, Ba/F3 cells expressing EGFR mutations (CellTiter-Glo, 72 hours); assay type: cell-based; conditions: CellTiter-Glo
How it was run: as §2

EGFR (d746-750 C797S) = molecular target: T7, EGFR (d746-750 C797S) (Homo sapiens, UniProt P00533, C797S/DEL746-750); experiment: Inhibition of EGFR (d746-750 C797S) biochemical enzymatic activity (HTRF); conditions: EGFR Del19-C797S, 1 mM ATP, 1 h, room temperature, read-out: IC50 (nM) @Del19-C797S
T7 construct: purchased signalchem
T7 sequence (P00533 with tags, fused parts or gaps DEL746-750/C797S limits assumed): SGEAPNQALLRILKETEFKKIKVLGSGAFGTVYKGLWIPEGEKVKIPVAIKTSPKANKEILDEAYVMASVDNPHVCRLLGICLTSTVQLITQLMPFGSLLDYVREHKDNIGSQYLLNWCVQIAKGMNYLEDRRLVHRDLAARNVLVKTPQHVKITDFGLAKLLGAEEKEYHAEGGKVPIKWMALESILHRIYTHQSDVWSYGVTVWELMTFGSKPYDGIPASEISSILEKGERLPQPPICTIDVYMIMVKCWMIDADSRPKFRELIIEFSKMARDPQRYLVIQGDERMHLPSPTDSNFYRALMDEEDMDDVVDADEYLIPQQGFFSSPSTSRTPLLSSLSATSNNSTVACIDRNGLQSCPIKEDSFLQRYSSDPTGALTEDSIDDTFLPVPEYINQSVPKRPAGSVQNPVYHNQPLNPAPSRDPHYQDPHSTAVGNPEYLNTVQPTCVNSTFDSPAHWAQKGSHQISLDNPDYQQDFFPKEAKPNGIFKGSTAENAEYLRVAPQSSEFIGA
How it was run: as §1

A-431 = experiment: Cell proliferation GI50, A-431 cells (Table 6); assay type: cell-based
EGFR Exon19Del = molecular target: T8, EGFR Exon19Del (Homo sapiens, UniProt P00533, DEL746-750); experiment: Inhibition of EGFR Exon19Del biochemical enzymatic activity (HTRF); conditions: EGFR Del19, 1 mM ATP, 1 h, room temperature, read-out: IC50 @Del19
T8 construct: purchased Carna Bio
T8 sequence (P00533 with tags, fused parts or gaps DEL746-750 limits assumed): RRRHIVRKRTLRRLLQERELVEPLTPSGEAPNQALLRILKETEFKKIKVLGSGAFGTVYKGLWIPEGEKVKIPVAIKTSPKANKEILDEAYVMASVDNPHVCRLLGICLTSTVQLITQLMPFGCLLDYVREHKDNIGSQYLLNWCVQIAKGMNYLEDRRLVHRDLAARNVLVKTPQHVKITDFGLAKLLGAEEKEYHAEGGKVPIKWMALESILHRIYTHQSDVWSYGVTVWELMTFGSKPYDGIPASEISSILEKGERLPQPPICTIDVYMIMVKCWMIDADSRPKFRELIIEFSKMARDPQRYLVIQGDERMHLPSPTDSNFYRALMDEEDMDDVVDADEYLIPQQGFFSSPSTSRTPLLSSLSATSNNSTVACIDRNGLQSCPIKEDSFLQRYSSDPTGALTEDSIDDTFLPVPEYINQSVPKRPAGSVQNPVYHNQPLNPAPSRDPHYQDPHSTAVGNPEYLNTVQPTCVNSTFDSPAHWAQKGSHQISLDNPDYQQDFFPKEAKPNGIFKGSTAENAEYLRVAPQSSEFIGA
How it was run: as §1

EGFR L858R = molecular target: T9, EGFR L858R (Homo sapiens, UniProt P00533, L858R); experiment: Inhibition of EGFR L858R biochemical enzymatic activity (HTRF); conditions: 1 mM ATP, 1 h, room temperature, read-out: IC50 (nM) @L858R
T9 construct: purchased Carna Bio
T9 sequence (P00533 25-1210 L858R): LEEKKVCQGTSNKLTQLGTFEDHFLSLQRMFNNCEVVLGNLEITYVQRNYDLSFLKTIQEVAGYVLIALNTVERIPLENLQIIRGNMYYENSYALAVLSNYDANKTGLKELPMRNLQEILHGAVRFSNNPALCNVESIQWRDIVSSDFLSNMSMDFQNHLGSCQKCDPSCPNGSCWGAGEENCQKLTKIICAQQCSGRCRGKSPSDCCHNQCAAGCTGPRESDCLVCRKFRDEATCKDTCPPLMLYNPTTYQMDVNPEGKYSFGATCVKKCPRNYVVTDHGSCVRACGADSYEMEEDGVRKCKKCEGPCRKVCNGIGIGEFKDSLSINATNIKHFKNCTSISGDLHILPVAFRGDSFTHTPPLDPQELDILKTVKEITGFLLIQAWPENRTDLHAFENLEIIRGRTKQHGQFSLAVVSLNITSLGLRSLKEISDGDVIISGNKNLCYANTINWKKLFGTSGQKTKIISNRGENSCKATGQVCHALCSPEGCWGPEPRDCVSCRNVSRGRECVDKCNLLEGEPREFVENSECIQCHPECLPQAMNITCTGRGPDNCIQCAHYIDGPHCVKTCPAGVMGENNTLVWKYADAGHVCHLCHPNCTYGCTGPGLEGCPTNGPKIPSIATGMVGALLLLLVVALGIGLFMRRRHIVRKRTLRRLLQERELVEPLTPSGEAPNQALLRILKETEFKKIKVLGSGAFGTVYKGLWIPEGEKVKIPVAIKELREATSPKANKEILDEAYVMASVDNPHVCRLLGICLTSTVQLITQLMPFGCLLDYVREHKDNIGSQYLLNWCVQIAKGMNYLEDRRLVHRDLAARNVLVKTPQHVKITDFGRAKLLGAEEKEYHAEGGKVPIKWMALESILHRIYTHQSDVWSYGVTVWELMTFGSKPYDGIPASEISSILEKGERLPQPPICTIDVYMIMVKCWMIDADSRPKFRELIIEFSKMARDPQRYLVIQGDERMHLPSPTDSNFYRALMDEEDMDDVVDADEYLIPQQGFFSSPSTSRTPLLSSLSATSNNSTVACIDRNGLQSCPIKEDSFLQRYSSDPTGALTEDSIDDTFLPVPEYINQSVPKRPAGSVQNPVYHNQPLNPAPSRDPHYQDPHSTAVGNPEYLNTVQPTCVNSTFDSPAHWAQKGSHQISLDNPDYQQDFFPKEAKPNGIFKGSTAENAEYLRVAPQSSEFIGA
How it was run: as §1

[3] = Mus musculus, BaF3, 72 h, BaF3 cells, EGFR DEL19-C797S, read-out: DEL19-C797S/BaF3 GI50
[4] = Mus musculus, BaF3, 72 h, BaF3 cells, EGFR DEL19-T790-C797S, read-out: DEL19-T790-C797S/BaF3 GI50
[5] = Mus musculus, BaF3, 72 h, BaF3 cells, EGFR L858R, read-out: L858R/BaF3 GI50
[6] = Mus musculus, BaF3, 72 h, BaF3 cells, EGFR L858R-C797S, read-out: L858R-C797S/BaF3 GI50
[7] = Mus musculus, BaF3, 72 h, BaF3 cells, EGFR L858R-T790-C797S, read-out: L858R-T790-C797S/BaF3 GI50
[8] = Mus musculus, BaF3, 72 h, BaF3 cells, EGFR L858R-T790M, read-out: L858R-T790M/BaF3 GI50
[9] = Mus musculus, BaF3, 72 h, EGFR DEL19-T790M, read-out: DEL19-T790M GI50
[10] = Homo sapiens, A-431, A-431 cells

IC50 (EGFR (C797S L858R))	IC50 (EGFR[T790M/C797S/L858R])	IC50 (EGFR wild type)	IC50 (EGFR L858R/T790M)	IC50 [1]	IC50 (EGFR Exon19Del/T790M)	GI50 (PC-9; Homo sapiens, PC-9, 72 h)	GI50 [2, 3]	GI50 [2, 4]	GI50 [2, 5]	GI50 [2, 6]	GI50 [2, 7]	GI50 [2, 8]	GI50 [2, 9]	IC50 (EGFR (d746-750 C797S))	GI50 (A-431; [10])	IC50 (EGFR Exon19Del)	IC50 (EGFR L858R)	further results	Compound
> 5000 nM	> 5000 nM	> 5000 nM	> 5000 nM	1230 nM	1530 nM	403 nM	204 nM	1050 nM	1310 nM	919 nM	1540 nM	795 nM	968 nM	1870 nM	1780 nM	1670 nM	> 5000 nM		CCN1CCOc2c(cnn2C)-c2cc(cn(C)c2=O)C(=O)Nc2nc3ccccc3n2C(C)C1 (stereo not drawn) [Example A6, 10-Ethyl-5,12,26-trimethyl-7-oxa-4,5,10,13,20,22,26-heptaazapentacyclo[22.3.1.0^{2,6}.0^{13,21}.0^{14,19}]octacosa-1(28),2(6),3,14,16,18,20,24-octaene-23,27-dione]
31 nM	24 nM	1830 nM	33 nM	12 nM	12 nM	62 nM	7.6 nM	35 nM	46 nM	38 nM	36 nM	65 nM	65 nM	4.7 nM	1040 nM	13 nM	94 nM		C[C@@H]1CCCOc2c(cnn2C)-c2cc(cn(C)c2=O)C(=O)Nc2nc3ccc(N4CCC(N(C)C)C(F)(F)C4)cc3n2C1 (stereo partly drawn) [Example A51]
8.8 nM	6.7 nM	9.3 nM	7.8 nM	5.1 nM	6.2 nM									3.1 nM		3.2 nM	7.2 nM	GI50 (PC-9): 11 nM; GI50 ([2]; BaF3 cells, EGFR DEL19-C797S, read-out: DEL19-C797S/BaF3 GI50): 0.55 nM; GI50 ([2]; BaF3 cells, EGFR DEL19-T790-C797S, read-out: DEL19-T790-C797S/BaF3 GI50): 1 nM; GI50 ([2]; BaF3 cells, EGFR L858R, read-out: L858R/BaF3 GI50): 1.2 nM; GI50 ([2]; BaF3 cells, EGFR L858R-C797S, read-out: L858R-C797S/BaF3 GI50): 3 nM; GI50 ([2]; BaF3 cells, EGFR L858R-T790-C797S, read-out: L858R-T790-C797S/BaF3 GI50): 1 nM; GI50 ([2]; BaF3 cells, EGFR L858R-T790M, read-out: L858R-T790M/BaF3 GI50): 4.2 nM; GI50 ([2]; EGFR DEL19-T790M, read-out: DEL19-T790M GI50): 1 nM; GI50 (A-431; A-431 cells): 6140 nM	CN1CCN(C2CCN(c3ccc4nc5n(c4c3)C34CCC(CN(CCOc6c(cnn6C)-c6cc(cn(C)c6=O)C(=O)N5)C3)C4)C2)CC1 (single isomer, unassigned) [Example A80B1, 15,21-Dimethyl-5-[3-(4-methylpiperazin-1-yl)pyrrolidin-1-yl]-23-oxa-2,9,11,15,20,21,26-heptaazaheptacyclo[24.4.1.1^{1,28}.1^{13,17}.0^{2,10}.0^{3,8}.0^{18,22}]tritriaconta-3,5,7,9,13,17(33),18(22),19-octaene-12,16-dione]
